Test [1] is described as follows: Tested for transactivation of human PPAR gamma-Gal4 chimera in CV-1 cells. It is filed as functional, cell-based.
Test [2] concerns the target T1, Peroxisome proliferator-activated receptor gamma (Homo sapiens, UniProt P37231).
T1 sequence (P37231 whole entry): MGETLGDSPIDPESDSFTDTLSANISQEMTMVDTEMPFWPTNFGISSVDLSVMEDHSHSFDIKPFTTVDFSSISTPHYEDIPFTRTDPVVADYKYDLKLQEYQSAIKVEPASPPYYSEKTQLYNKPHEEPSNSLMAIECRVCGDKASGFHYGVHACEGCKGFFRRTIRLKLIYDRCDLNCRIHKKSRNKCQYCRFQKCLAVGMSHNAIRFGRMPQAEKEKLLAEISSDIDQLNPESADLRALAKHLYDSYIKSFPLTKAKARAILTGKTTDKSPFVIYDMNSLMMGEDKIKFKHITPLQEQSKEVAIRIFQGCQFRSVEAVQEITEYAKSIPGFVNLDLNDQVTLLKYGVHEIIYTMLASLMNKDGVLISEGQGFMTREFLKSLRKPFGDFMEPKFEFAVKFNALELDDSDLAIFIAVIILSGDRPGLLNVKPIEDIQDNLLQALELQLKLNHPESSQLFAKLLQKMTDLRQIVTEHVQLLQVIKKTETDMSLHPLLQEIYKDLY
Description: Binding affinity was determined by displacement of 20 nM [3H]- thiazolidinedione from 4 nM biotinylated human peroxisome proliferator-activated receptor (PPAR gamma) ligand binding domain

For test [3], the target named is T1, Peroxisome proliferator-activated receptor gamma. Kind of test: Binding affinity was determined by displacement of 20 nM [3H]- thiazolidinedione from 4 nM biotinylated human Peroxisome proliferator activated receptor gamma (PPAR gamma) ligand binding domain.

On to `CCCCCCCC(=O)N(C)CCOc1ccc(CC2SC(=O)NC2=O)cc1` (stereo not drawn), for which the concentration giving a half-maximal response (EC50) in test [1] stood at 280 nM. Besides, affinity in test [2] was put at a Ki of 48 nM.
Consider `CCCCCCCCCC(=O)NCCOc1ccc(CC2SC(=O)NC2=O)cc1` (stereo not drawn), for which the affinity in test [2] corresponds to a Ki of 130 nM.
In the case of `CCCCCCCCCC(=O)N(C)CCOc1ccc(CC2SC(=O)NC2=O)cc1` (stereo not drawn), the concentration for a half-maximal effect (EC50) in test [1] came out at 290 nM. The Ki in test [2] came out at 20 nM.
In test [2], `CCCCCC(=O)N(C)CCOc1ccc(CC2SC(=O)NC2=O)cc1` (stereo not drawn) yielded a Ki of 180 nM.
Take `CCCCC(=O)N(C)CCOc1ccc(CC2SC(=O)NC2=O)cc1` (stereo not drawn): the inhibitory constant (Ki) in test [2] was determined as 1100 nM.
Still for that read-out and setting: as for `CC/C=C/C(=O)N(C)CCOc1ccc(CC2SC(=O)NC2=O)cc1` (stereo not drawn), the figure is 1200 nM.
For `CCCCCCCCC(=O)N(C)CCOc1ccc(CC2SC(=O)NC2=O)cc1` (stereo not drawn), the response in test [1] was half-maximal at 280 nM (EC50). This compound also registered an inhibition constant Ki in test [2] of 18 nM.
Compound `CCCCCC(=O)NCCOc1ccc(CC2SC(=O)NC2=O)cc1` (stereo not drawn) returned an inhibitory constant (Ki) in test [3] of 10000 nM.
On to `CN(CCOc1ccc(CC2SC(=O)NC2=O)cc1)c1ccccn1` (stereo not drawn) [ROSIGLITAZONE], for which a half-maximal response in test [1] (EC50) required 50 nM.
As for `C=CCC/C=C/C(=O)N(C)CCOc1ccc(CC2SC(=O)NC2=O)cc1` (stereo not drawn), in test [1], a half-maximal response (EC50) required 520 nM. The compound also returned a Ki in test [2] of 18 nM.
In the case of `CCCCCCC(=O)N(C)CCOc1ccc(CC2SC(=O)NC2=O)cc1` (stereo not drawn), the half-maximal effective concentration (EC50) in test [1] stood at 810 nM. For the same compound, in test [2], the affinity, expressed as Ki, was 61 nM.
In test [2], `CCCCCCCC(=O)NCCOc1ccc(CC2SC(=O)NC2=O)cc1` (stereo not drawn) showed an inhibition constant Ki of 290 nM.
The same measure, in the same setting: as for `C=CCCC(=O)NCCOc1ccc(CC2SC(=O)NC2=O)cc1` (stereo not drawn), the figure is over 10000 nM.
For the compound `CCCCC/C=C/C/C=C\C/C=C\C/C=C\CCCC(=O)O`, the response in test [1] was half-maximal at 30000 nM (EC50). Besides, the Ki in test [2] was found to be 1500 nM.
As for `C/C=C/CC(=O)N(C)CCOc1ccc(CC2SC(=O)NC2=O)cc1` (stereo not drawn), the affinity in test [2] corresponds to a Ki of 1200 nM.
With `CCCCC(=O)NCCOc1ccc(CC2SC(=O)NC2=O)cc1` (stereo not drawn), in test [2], the Ki is over 10000 nM.
On the same count and under the same terms, as for `CCCCCCCCC(=O)NCCOc1ccc(CC2SC(=O)NC2=O)cc1` (stereo not drawn), the figure is 270 nM; as for `C=CCC/C=C/C(=O)NCCOc1ccc(CC2SC(=O)NC2=O)cc1` (stereo not drawn), 6800 nM.
Same read-out and setting: as for `CCCCCCC(=O)NCCOc1ccc(CC2SC(=O)NC2=O)cc1` (stereo not drawn), the figure is 1400 nM; as for `C=CCCC(=O)N(C)CCOc1ccc(CC2SC(=O)NC2=O)cc1` (stereo not drawn), 600 nM.
With `CC/C=C/C(=O)NCCOc1ccc(CC2SC(=O)NC2=O)cc1` (stereo not drawn), the Ki in test [2] is over 10000 nM.
The compound `C/C=C/CC(=O)NCCOc1ccc(CC2SC(=O)NC2=O)cc1` (stereo not drawn) came in with a Ki in test [2] of over 10000 nM.

For orientation: EC50 means the concentration that produces a half-maximal response. One may read the Ki as the dissociation constant of the complex between target and ligand, obtained from inhibition or displacement.

The record behind these values is ChEMBL document CHEMBL1130543, “Solid-phase synthesis of hybrid thiazolidinedione-fatty acid PPAR ligands” (Bioorg Med Chem Lett, 1997).
